PubChem BioAssay AID1963597 (National Center for Advancing Translational Sciences (NCATS), 2024)
Residues, ends and D or L forms follow the SMILES beside them.

What follows are molecules tested on human liver microsomes, metabolic stability half-life (assay: NCATS Human Liver Microsomal (HLM) Stability Profiling). Conditions: higher = more stable; screened at 1 µM (by protocol).
How it was run: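 Substrate depletion (in vitro t1/2): 1 µM compound with 0.5 mg/mL microsomes and NADPH regenerating system, phosphate buffer pH 7.4, 37 °C. Sampled at 0, 5, 10, 15, 30, 60 min into cold acetonitrile with albendazole internal standard for MS quantification.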

Row | Compound | half-life [min]
1 | COc1ccc2cc(OCC3(C(=O)O)CN(C(=O)c4ccc(F)cc4)C3)ccc2c1 | 8.64
2 | COc1ccncc1C(=O)NC(=O)Nc1ccc(-c2ccccc2)c(C(F)(F)F)c1 | > 120
3 | O=C(NCCN1CCN(c2cccc3c2OCCO3)CC1)c1ccc(F)cc1 | 34.2
4 | CCSC(=O)N1CCCCCC1 | 27.7
5 | CC(C)Oc1ccc2c(=O)c(-c3ccccc3)coc2c1 | 16.1
6 | N#Cc1cccc(CN2CC(COc3ccccc3)C3(C2)CN(c2ccccc2)C3)c1 (stereo not drawn) | 3.65
7 | O=C(CO)N1CCC(c2[nH]nc(-c3ccc(Cl)cc3)c2-c2ccncn2)CC1 | > 120
8 | C/C=C(/C(=C/C)c1ccc(OC(C)=O)cc1)c1ccc(OC(C)=O)cc1 | > 120
9 | O=C(Nc1c(-c2cccs2)nc2ccccn12)c1ccc(Cl)cc1 | > 120
10 | Cc1c(C)n(Cc2ccccc2)c2ccc(C(=O)OCCN(C)C)cc12 | 11.1
11 | O=C(NOCC1CC1)c1ccc(F)c(F)c1Nc1ccc(I)cc1Cl | 11.2
12 | C=C1CCN([C@H](C)[C@](O)(Cn2cncn2)c2ccc(F)cc2F)CC1 | 10
13 | CC(=O)Nc1cccc(O)c1 | > 120
14 | CC(=O)Nc1nnc(S(N)(=O)=O)s1 | > 120
15 | Cc1ccc(-c2c(-c3nn(C)c4ncnc(N5CCC(N6CCCCC6)C5)c34)cnn2C)cc1 (stereo not drawn) | > 120
16 | Cc1ccc(-c2cc3ncc(C(=O)c4cc([N+](=O)[O-])ccc4O)cn3n2)cc1 | 4.91
17 | CC#C[C@@H](CC(=O)O)c1ccc(OCc2ccc(CN3CCC4(C=Cc5ccccc54)CC3)s2)cc1 | 25.1
18 | C[C@]12CC[C@H]3[C@@H](CCC4=CC(=O)CC[C@@]43C)[C@@H]1CC[C@@H]2C(=O)O | > 120
19 | Cc1ncc(CSSCc2cnc(C)c(O)c2CO)c(CO)c1O | > 120
20 | C=C1CC[C@@]2(O)[C@H]3Cc4ccc(O)c5c4[C@@]2(CCN3CC2CC2)[C@H]1O5 | > 120
21 | COC(=O)[C@H](Cc1ccccc1)NC(=O)[C@@H](N)CC(=O)O (H-Asp-Phe-OMe) | 40.7
22 | COc1ccc(-n2nc(CCC(=O)N(C)O)cc2-c2ccc(Cl)cc2)cc1 | 39.1

Row | Compound | half-life [min]
23 | CCC1=c2cc(OC(=O)N3CCC(N4CCCCC4)CC3)ccc2=NC2=C3C=C4C(COC(=O)[C@]4(O)CC)C(=O)N3CC21 (stereo partly drawn) | > 120
24 | Cc1ccccc1C(=O)Nc1cccc(-c2nc3cccnc3s2)c1 | 6.57
25 | Cc1nc(NC(=O)N2CCCC2C(N)=O)sc1-c1ccnc(C(C)(C)C(F)(F)F)c1 (stereo not drawn) | > 120
26 | CC(C)(C)Nc1nc(Nc2ccc(C(N)=O)cc2)cc(N)c1C#N | > 120
27 | COc1cc2c(C(=O)N(C)c3cccc(C(F)(F)F)c3)cn(CC(C)C)c(=O)c2cc1OC | 0.93
28 | O=C(c1cnn(-c2cccc(F)c2)c1-n1cccc1)N1CCN(c2ccccc2F)CC1 | 9.4
29 | CC1=CC(=O)c2ccccc2C1=O | 11.4
30 | O=C(CSc1nc2ccccc2n1Cc1cccc(Cl)c1)N1CCN(c2ccc(F)cc2)CC1 | 0.81
31 | O=S(=O)(O)c1cc(I)c(O)c2ncccc12 | > 120
32 | Nc1cccc(CNC(=O)c2ccc(Oc3ccc(OCc4cccc(F)c4)cc3)nc2)c1 | 29.7
33 | N#Cc1ccc(-c2ccc(S(=O)(=O)Nc3cccc(N)n3)cc2)cc1 | > 120
34 | CN(C)CCN(Cc1cccs1)c1ccccn1 | 23.8
35 | NC(=O)C1(N2CCCCC2)CCN(CCCC(=O)c2ccc(F)cc2)CC1 | 101
36 | CCN(CC)C(=O)c1cccc(C)c1 | > 120
37 | CC1=C(C(=O)Nc2cccc(-c3cn[nH]c3)c2)C(c2ccccc2Cl)N=C(Nc2nc3ccccc3o2)N1 (stereo not drawn) | 49.1
38 | CC(C)(C)NC[C@H](O)COc1cccc2c1CCCC2=O | > 120
39 | COc1cc(C(C)=O)ccc1OCCCN1CCC(c2noc3cc(F)ccc23)CC1 | 25.1
40 | Cc1nn2c(c1-c1ccccc1Oc1ccccc1)N(Cc1cccc(C#N)c1)CCC2 | 0.77
41 | Cc1[nH]c(/C=C2\C(=O)Nc3cc(-c4ccccc4)ccc32)c(C)c1CCC(=O)O | > 120
42 | CC(=O)NC[C@H]1CN(c2ccc(N3CCSCC3)c(F)c2)C(=O)O1 | > 120
43 | Cc1ccccc1C(=O)Nc1ccc(C(=O)N2CCCC(O)c3cc(Cl)ccc32)c(C)c1 (stereo not drawn) | 13.9
44 | CC(C)(C)NCc1cc(Nc2ccnc3cc(Cl)ccc23)c2c(c1O)CCCC2 | > 120

Row | Compound | half-life [min]
45 | CCOc1ccc(NS(=O)(=O)c2ccc(N)cc2)nn1 | > 120
46 | N#Cc1ccc(C(=O)Nc2ccc(Cl)c(-c3nc4cc(Cl)ccc4o3)c2)c(F)c1 | 15.4
47 | CCc1nc(C(N)=O)c(Nc2ccc(N3CCC(N4CCN(C)CC4)CC3)c(OC)c2)nc1NC1CCOCC1 | > 120
48 | CC(C(=O)O)C1C=CC(C(=O)c2ccccc2)S1 (stereo not drawn) | > 120
49 | COc1ccccc1CN[C@H]1C2CCN(CC2)[C@H]1C(c1ccccc1)c1ccccc1 | 35
50 | CCN1CCCC1=O | > 120
51 | CCOc1ccc(-c2cc(NC(=O)Nc3ccccc3Cl)c(C(=O)OC)s2)cc1 | 47.8
52 | CCOc1ccc(-n2c(C(C)N(Cc3cccnc3)C(=O)Cc3ccc(F)c(C(F)(F)F)c3)nc3ncccc3c2=O)cc1 (stereo not drawn) | 4.89
53 | Nc1ccc(C(=O)Nc2cccc(-c3nc(N4CCOCC4)c4oc5ncccc5c4n3)c2)cn1 | 56.2
54 | COC(=O)N[C@@H](C)CNc1nccc(-c2cn(C(C)C)nc2-c2cc(Cl)cc(NS(C)(=O)=O)c2F)n1 | 34.4
55 | CC(=O)N1C[C@H](O)C[C@H]1C(=O)O | 50.1
56 | CO[C@@H](Cc1ccc(OCCc2nc(-c3ccccc3)oc2C)c2ccsc12)C(=O)O | 72.2
57 | Cc1ccc(Nc2nc3ccccc3c3nnc(C)n23)c(C)c1 | 6.47
58 | CC1(c2ccccc2)N(Cc2ccccc2)C(=O)OC12CCN(Cc1cccc(C#N)c1)CC2 (stereo not drawn) | 2.04
59 | CC(C)(C)c1ccc(-c2nc(SCC(=O)Nc3ccc(Cl)cc3)[nH]c(=O)c2C#N)cc1 | 19.2
60 | NS(=O)(=O)c1cc2c(cc1Cl)NC(CSCc1ccccc1)=NS2(=O)=O | 29.2
61 | CCOc1ccc(Nc2nc(C)c(NC(=O)c3ccc(C)cc3)c(Nc3ccc(OCC)cc3)n2)cc1 | 12.2
62 | C#C[C@]1(O)CC[C@H]2[C@@H]3CCC4=CC(=O)CCC4=C3C=C[C@@]21CC | 38.2
63 | O=C1COc2nccc(-c3ccccc3F)c2CN1Cc1cc(C(F)(F)F)cc(C(F)(F)F)c1 | 2.5
64 | COc1cc(C(=O)N2CCCCCCC2)cc(OC)c1OC | 29.3
65 | COc1ccc(C)cc1Nc1c2c(nc3ccccc13)CCC2 | 29.9
66 | Oc1cccc(C2NC(=S)Nc3cccc(F)c32)c1 (stereo not drawn) | > 120

Row | Compound | half-life [min]
67 | FC(F)(F)Oc1ccc(-c2ccc3nnc(C(F)(F)F)n3c2)cc1 | > 120
68 | N#Cc1ccc(C(=O)Nc2ccc(Cl)c(-c3nc4ncccc4o3)c2)c(F)c1 | 10.3
69 | CC(C)CCn1c(CN2CCN(C(=O)C(C)C)CC2)nc2c1c(=O)n(C)c(=O)n2C | 70.7
70 | Cc1ccc(C(=O)NC2CCN(c3cnn(CC4CC4)c(=O)c3)CC2)cc1C | > 120
71 | COc1ccc(CC(=O)Nc2c(C(=O)N3CCN(c4ccccc4F)CC3)oc3ccccc23)cc1OC | 5.26
72 | COc1cc(C(=S)N2CCOCC2)cc(OC)c1OC | > 120
73 | O=C(CCNc1c(-c2ccccc2)nc2cnccn12)N1CCCC1 | 7.99
74 | O=c1[nH]c(=O)n([C@H]2C[C@H](O)[C@@H](CO)O2)cc1C(F)(F)F | > 120
75 | COc1cc(C(=O)NC2CCCNC2)cc(OC)c1OC (stereo not drawn) | > 120
76 | CCC(=O)N1CCC(n2nccc2NC(=O)Nc2ccccc2Cl)CC1 | 89.7
77 | COC(=O)[C@@H]1[C@H]2C[C@H]3c4[nH]c5ccccc5c4CCN3C[C@@H]2CC[C@@H]1O | 83.9
78 | COc1cc(C(=O)NCC2(N(C)C)CCCC2)cc(OC)c1OCc1ccccc1 | 38.3
79 | COc1cccc(NC(=O)c2oc3ccc(S(=O)(=O)N4CCC5(CC4)OCCO5)cc3c2C)c1 | 12.2
80 | COCC1(CO)C(=O)C2CCN1CC2 (stereo not drawn) | > 120
81 | CN1c2cc(C(=O)Nc3ccc(C#N)cc3)ccc2C(=O)N2CCCCC21 (stereo not drawn) | 44.3
82 | Cc1ccccc1NC(=O)Nc1cccs1 | 22.8
83 | COc1ccccc1N1CCNCC1 | > 120
84 | Cn1cc(-c2cnc3ccc4ccc(CS(=O)(=O)NCc5ccccn5)cc4c(=O)c3c2)cn1 | 17.1
85 | O=c1oc2ccccc2c(O)c1Cc1c(O)c2ccccc2oc1=O | 33.3
86 | N[C@@H](CC(=O)Nc1ccc(Oc2cc(F)c(F)cc2Br)cc1)C(=O)O | > 120
87 | Fc1ccc(CN2CCC(Nc3ccc(C(F)(F)F)nn3)CC2)cc1F | 42.3
88 | COCCCNC(=O)CCC(=O)NNc1nc2ccccc2c2nc(-c3ccccc3)nn12 | > 120

Row | Compound | half-life [min]
89 | Cc1cccc(C)c1NC(=O)Nc1cccs1 | 80.6
90 | CCOP(=S)(OCC)Oc1nc(Cl)n(C(C)C)n1 | 15.1
91 | Nc1ncnc2c1ncn2[C@@H]1O[C@H](CO)[C@@H](O)[C@@H]1O | > 120
92 | CN[C@@H](C)[C@@H](O)c1ccccc1 | > 120
93 | NC(=O)N1c2ccccc2C=Cc2ccccc21 | > 120
94 | CCN(CC)CCOc1ccc2c(c1)C(=O)c1cc(OCCN(CC)CC)ccc1-2 | > 120
95 | CC(Cc1ccccc1)(NC(=O)CN)c1ccccc1 (stereo not drawn) | > 120
96 | c1ccc2c(c1)CCC[C@H]2C1=NCCN1 | > 120
97 | Nc1ncnc2c1c(COc1cccc(Cl)c1)nn2C1CCOCC1 | 39.9
98 | CCCCOCCOC(=O)c1cccnc1 | 0.66
99 | OCCN1CCN(CCCN2c3ccccc3C=Cc3ccccc32)CC1 | > 120
100 | Cc1ccc(C)c(N2CCN(CCCNC(=O)c3ccc4nc(C(C)C)oc4c3)CC2)c1 | 13.8
101 | CN1CCN(C(=O)c2ccc(Nc3nccc(-c4cccs4)n3)cc2Cl)CC1 | 19.2
102 | CCOc1ccc(CNC(=O)Cn2c(=O)c3cccn3c3ccc(F)cc32)cc1OC | 80.7
103 | COc1ccc(-c2oc3cc(OC)ccc3c2C(=O)c2ccc(C#N)cc2)cc1 | 20.6
104 | Cc1cc(=O)oc2cc(O)ccc12 | 60.6
105 | Cc1ccc(-c2ccccc2C#N)cc1 | 1
106 | c1ccc(-c2cnc(Nc3ccc(OCCN4CCCC4)cc3)s2)cc1 | 103
107 | CC(=O)N1CCN(c2ccc(O)cc2)CC1 | > 120
108 | COc1ccc2nc([C@H]3CCN(Cc4ccc(C(=O)O)cc4)C3)[nH]c2c1 | > 120
